Assays:
Assay in all cases: Kinase panel profiling at 1 µmol/L (mobility shift assay, Carna)
Assay type in all cases: biochemical
Details in all cases: 1 µmol/L of BTK inhibitor
EPHA7 = target: T1, EPHA7 (Homo sapiens, UniProt Q15375)
T1 construct: purchased Carna Biosciences

SYK = target: T2, SYK (Homo sapiens, UniProt P43405)
T2 construct: purchased Carna Biosciences

AMPKα1/β1/γ1 = target: T3, AMPKα1/β1/γ1 (Homo sapiens, UniProt Q13131)
T3 construct: purchased Carna Biosciences

CDK7/CycH/MAT1 = target: T4, CDK7/CycH/MAT1 (Homo sapiens, UniProt P50613)
T4 construct: purchased Carna Biosciences

LATS2 = target: T5, LATS2 (Homo sapiens, UniProt Q9NRM7)
T5 construct: purchased Carna Biosciences
T5 sequence (Q9NRM7 1-1088): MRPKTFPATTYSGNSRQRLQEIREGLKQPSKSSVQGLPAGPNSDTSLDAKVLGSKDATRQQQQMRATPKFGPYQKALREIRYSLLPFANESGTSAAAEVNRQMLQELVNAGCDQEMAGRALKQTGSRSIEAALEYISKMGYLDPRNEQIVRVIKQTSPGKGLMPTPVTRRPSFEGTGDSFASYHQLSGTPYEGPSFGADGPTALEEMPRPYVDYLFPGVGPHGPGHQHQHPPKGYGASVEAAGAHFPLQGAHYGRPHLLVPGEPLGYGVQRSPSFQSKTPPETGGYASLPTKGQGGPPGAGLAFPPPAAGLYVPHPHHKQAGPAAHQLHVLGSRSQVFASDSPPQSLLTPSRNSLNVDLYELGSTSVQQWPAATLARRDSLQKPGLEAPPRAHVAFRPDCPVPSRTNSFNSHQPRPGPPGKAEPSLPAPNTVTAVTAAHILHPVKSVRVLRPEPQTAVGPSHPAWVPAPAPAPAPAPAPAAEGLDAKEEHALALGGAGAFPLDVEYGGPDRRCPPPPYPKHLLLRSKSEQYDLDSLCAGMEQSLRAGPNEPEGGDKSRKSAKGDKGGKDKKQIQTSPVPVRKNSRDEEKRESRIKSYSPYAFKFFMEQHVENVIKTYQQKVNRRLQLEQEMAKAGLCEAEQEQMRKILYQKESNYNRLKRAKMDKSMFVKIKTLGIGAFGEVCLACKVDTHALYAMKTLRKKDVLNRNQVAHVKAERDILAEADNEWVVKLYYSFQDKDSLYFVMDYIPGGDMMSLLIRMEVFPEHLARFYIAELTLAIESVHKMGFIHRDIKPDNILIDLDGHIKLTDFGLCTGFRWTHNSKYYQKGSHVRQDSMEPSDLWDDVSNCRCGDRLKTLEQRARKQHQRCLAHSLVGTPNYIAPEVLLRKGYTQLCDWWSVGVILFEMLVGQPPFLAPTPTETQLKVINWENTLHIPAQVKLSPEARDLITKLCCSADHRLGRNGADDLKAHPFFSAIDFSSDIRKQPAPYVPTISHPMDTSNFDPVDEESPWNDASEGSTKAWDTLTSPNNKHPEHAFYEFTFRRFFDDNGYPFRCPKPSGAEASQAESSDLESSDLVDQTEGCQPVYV

MELK = target: T6, MELK (Homo sapiens, UniProt Q14680)
T6 construct: purchased Carna Biosciences

PGK = target: T7, PGK (Homo sapiens, UniProt Q13976)
T7 construct: purchased Carna Biosciences
T7 sequence (Q13976 1-671): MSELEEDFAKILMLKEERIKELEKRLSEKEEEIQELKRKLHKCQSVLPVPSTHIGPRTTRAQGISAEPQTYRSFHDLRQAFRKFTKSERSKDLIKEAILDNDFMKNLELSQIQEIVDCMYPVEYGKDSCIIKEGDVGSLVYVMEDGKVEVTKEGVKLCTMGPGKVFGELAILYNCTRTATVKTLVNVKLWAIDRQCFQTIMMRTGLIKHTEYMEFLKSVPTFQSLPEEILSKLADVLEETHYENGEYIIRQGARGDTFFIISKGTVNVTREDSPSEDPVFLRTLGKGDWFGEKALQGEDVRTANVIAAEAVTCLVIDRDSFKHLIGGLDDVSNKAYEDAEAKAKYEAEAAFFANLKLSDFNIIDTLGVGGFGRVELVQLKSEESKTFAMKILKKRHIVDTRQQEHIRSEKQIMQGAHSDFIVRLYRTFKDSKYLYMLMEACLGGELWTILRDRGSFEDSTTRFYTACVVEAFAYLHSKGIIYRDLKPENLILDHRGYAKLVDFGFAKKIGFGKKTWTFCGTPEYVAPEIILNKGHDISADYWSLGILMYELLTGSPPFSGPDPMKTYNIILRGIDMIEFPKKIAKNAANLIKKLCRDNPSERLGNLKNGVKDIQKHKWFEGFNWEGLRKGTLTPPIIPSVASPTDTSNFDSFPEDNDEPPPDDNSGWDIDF

PIM3 = target: T8, PIM3 (Homo sapiens, UniProt Q86V86)
T8 construct: purchased Carna Biosciences

PKCζ = target: T9, PKCζ (Homo sapiens, UniProt Q05513)
T9 construct: purchased Carna Biosciences
T9 sequence (Q05513 1-592): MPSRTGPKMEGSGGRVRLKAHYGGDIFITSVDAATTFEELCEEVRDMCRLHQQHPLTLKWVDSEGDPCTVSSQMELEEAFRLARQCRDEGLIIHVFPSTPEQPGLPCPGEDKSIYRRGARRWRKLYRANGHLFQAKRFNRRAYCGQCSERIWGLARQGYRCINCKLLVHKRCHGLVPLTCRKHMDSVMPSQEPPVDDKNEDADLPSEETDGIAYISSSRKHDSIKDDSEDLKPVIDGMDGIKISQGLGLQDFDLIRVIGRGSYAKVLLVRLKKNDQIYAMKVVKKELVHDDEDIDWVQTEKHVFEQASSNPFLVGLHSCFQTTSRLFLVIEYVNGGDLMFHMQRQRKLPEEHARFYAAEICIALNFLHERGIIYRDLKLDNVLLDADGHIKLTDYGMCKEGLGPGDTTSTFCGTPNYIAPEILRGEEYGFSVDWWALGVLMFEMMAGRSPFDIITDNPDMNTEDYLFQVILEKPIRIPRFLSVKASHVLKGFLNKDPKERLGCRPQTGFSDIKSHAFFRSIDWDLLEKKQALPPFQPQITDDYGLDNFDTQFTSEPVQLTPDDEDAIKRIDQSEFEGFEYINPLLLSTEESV

T3 sequence (Q13131 whole entry): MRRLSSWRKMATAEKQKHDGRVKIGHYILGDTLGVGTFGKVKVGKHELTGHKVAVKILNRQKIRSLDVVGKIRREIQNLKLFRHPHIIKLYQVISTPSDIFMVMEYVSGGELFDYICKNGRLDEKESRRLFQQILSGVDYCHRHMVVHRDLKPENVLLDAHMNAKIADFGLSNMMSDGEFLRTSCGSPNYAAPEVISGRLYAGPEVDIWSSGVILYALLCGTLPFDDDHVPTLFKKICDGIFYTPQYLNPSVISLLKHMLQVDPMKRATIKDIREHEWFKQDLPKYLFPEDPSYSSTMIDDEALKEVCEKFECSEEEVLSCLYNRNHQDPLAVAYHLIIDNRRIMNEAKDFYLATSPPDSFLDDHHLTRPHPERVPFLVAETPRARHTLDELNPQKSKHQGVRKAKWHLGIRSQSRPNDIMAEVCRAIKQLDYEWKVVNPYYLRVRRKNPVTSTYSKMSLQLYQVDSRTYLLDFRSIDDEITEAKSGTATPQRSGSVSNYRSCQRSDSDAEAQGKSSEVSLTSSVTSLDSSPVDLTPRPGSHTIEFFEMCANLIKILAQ
T3 sequence (Q9Y478 whole entry partner): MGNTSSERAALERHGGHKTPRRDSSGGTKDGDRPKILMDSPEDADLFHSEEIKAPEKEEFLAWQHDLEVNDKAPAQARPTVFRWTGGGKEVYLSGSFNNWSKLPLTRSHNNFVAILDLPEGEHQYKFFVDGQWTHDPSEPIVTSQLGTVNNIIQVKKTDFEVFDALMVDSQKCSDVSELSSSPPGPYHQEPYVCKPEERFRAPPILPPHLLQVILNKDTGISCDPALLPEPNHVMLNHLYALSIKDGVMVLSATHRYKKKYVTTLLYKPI
T3 sequence (P54619 whole entry partner): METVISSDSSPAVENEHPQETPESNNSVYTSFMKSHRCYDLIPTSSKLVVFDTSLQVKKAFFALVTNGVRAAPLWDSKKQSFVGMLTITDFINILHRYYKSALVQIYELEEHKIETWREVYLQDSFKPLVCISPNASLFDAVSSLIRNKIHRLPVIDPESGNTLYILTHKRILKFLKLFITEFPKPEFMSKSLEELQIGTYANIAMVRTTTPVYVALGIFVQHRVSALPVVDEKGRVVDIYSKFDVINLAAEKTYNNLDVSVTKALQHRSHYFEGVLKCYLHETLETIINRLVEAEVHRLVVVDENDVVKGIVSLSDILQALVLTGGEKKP
T1 sequence (Q15375 28-998): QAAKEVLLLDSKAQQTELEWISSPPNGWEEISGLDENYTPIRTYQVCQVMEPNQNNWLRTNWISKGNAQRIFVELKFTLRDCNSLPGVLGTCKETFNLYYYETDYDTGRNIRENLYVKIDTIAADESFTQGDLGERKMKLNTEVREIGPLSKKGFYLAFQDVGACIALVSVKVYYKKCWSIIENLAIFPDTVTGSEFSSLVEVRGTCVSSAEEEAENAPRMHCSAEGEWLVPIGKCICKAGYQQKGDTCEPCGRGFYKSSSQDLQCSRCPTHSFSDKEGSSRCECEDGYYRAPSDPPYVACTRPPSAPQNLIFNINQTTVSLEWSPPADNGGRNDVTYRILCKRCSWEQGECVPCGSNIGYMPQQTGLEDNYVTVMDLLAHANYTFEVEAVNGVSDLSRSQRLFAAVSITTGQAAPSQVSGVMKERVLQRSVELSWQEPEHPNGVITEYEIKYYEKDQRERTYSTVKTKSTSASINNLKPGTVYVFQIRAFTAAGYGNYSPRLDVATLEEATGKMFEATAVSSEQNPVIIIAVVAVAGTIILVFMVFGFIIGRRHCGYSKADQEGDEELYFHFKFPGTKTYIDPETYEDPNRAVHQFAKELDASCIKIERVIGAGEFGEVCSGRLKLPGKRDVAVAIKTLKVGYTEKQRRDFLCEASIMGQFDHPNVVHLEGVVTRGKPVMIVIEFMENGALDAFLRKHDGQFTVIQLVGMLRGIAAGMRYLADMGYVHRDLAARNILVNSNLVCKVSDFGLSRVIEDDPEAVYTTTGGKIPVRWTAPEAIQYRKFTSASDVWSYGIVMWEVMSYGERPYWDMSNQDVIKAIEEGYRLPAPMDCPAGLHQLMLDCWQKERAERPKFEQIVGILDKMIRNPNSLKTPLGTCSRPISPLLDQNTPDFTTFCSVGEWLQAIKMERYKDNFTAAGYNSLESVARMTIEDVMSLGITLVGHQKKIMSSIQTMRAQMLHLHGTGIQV
T4 sequence (P50613 whole entry): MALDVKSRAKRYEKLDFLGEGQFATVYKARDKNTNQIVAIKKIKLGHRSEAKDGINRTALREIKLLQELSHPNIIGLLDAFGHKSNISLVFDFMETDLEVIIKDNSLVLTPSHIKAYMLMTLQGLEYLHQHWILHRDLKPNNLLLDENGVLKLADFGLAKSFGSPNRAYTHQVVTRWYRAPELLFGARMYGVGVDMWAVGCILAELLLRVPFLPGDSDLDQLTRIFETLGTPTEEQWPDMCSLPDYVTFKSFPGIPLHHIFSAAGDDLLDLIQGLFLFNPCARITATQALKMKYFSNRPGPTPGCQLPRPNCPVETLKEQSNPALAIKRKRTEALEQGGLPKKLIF
T4 sequence (P51946 whole entry partner): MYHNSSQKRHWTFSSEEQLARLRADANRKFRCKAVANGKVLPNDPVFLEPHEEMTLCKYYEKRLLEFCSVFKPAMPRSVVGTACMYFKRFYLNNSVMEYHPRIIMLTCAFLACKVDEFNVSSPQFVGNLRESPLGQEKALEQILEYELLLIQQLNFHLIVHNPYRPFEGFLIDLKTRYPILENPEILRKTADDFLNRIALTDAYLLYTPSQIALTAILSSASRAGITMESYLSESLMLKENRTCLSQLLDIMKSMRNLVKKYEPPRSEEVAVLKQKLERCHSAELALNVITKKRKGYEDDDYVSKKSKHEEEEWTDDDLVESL
T4 sequence (P51948 whole entry partner): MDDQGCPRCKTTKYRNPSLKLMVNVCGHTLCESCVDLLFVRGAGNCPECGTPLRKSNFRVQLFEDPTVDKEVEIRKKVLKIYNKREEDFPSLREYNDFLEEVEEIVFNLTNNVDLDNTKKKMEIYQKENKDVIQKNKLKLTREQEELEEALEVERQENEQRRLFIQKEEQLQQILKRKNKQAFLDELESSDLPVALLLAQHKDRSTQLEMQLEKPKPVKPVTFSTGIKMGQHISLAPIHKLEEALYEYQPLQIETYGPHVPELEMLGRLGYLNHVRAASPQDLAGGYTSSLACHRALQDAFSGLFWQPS
T6 sequence (Q14680 whole entry): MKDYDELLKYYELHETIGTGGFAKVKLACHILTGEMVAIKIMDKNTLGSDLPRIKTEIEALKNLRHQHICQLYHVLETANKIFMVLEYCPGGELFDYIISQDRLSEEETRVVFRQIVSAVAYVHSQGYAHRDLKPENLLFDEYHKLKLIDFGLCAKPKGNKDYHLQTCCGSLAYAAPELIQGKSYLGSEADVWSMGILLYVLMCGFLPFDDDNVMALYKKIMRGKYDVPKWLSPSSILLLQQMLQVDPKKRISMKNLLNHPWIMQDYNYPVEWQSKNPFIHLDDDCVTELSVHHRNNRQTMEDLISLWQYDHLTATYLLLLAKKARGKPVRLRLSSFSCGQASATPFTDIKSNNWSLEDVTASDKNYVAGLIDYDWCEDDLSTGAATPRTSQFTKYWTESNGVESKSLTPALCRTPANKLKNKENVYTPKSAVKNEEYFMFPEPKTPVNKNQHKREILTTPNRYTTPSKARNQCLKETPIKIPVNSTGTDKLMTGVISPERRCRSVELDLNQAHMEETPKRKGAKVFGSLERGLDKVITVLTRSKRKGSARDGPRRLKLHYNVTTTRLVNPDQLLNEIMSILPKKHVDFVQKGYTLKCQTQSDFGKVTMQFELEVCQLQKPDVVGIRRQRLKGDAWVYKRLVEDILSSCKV

Row | Compound | Percentage inhibition of kinase enzyme activity (EPHA7) [%] | Percentage inhibition of kinase enzyme activity (SYK) [%] | Percentage inhibition of kinase enzyme activity (AMPKα1/β1/γ1) [%] | Percentage inhibition of kinase enzyme activity (CDK7/CycH/MAT1) [%] | Percentage inhibition of kinase enzyme activity (LATS2) [%] | Percentage inhibition of kinase enzyme activity (MELK) [%] | Percentage inhibition of kinase enzyme activity (PGK) [%] | Percentage inhibition of kinase enzyme activity (PIM3) [%] | Percentage inhibition of kinase enzyme activity (PKCζ) [%]
1 | CC#CC(=O)N1CCC[C@H]1c1nc(-c2ccc(C(=O)Nc3ccccn3)cc2)c2c(N)nccn12 [acalabrutinib] | -3.54 | -19.36 | -4.92 | 5.25 | -7.45 | -0.54 | -3.70 | -0.0376 | -5.44
2 | C=CC(=O)N1CCC[C@@H](n2nc(-c3ccc(Oc4ccccc4)cc3)c3c(N)ncnc32)C1 [ibrutinib] | 6.99 | -19.83 |  | 4.94 | 5.45 | 8.08 | 1.89 | -0.24 | 10.28
3 | O=C(c1ccc(Oc2ccccc2)cc1Cl)c1c[nH]c2ncnc(N[C@@H]3CC[C@@H](CO)OC3)c12 [nemtabrutinib] | 94.05 | 3.99 | 12.21 | -12.60 | 70.96 | 81.25 | -2.11 | -5.55 | -0.78
4 | C=CC(=O)N1CCC([C@@H]2CCNc3c(C(N)=O)c(-c4ccc(Oc5ccccc5)cc4)nn32)CC1 [zanubrutinib] | -7.84 |  |  |  |  |  |  |  | 
5 | COc1ccc(F)cc1C(=O)NCc1ccc(-c2nn([C@@H](C)C(F)(F)F)c(N)c2C(N)=O)cc1 [pirtobrutinib] | -9.86 | -13.08 | -7.93 | -4.77 | 2.57 | -5.13 | 0.94 | 1.44 | -3.38

From PMC12586182 (Frontiers in Oncology, 2025)
